Assay in all cases: Biochemical ATPase assay, mutant p97 vs WT
For one assay, the target named is T1, p97 D649A (Homo sapiens, UniProt P55072, D649A).
T1 construct: His-tag; made in house; host or cells: E. coli B121[DE3]; (so in the source)
The following applies: recombinant p97 with D649A mutation. As for the experimental part:
(§1) Proteins were expressed in the B121[DE3] strain of E. coli and purified using His-tag mediated nickel purification and gel filtration chromatography.
(§2) ATPase activity of p97 was measured using an ATP regenerating enzymatic system that couples the conversion of phosphoenolpyruvate (PEP) to pyruvate by pyruvate kinase with ADP conversion to ATP. Pyruvate is then converted to lactate by lactate dehydrogenase, which is coupled to the conversion of NADH to NAD^+. The loss of NADH is measured by a decrease in optical absorbance as […] allowing for real-time measurement of ATPase activity. Dose titrations of a test compound were added to the p97 ATPase assay and ATPase activity was monitored. The rate of ATPase activity was fit to four-parameter sigmoidal curve to calculate IC50 of test compound. IC50 values of test compounds for wild type p97 were compared to IC50 values of mutant proteins to identify fold-changes in the potency of test compounds for mutant p97.

In a further assay the target is T2, p97 G481A (Homo sapiens, UniProt P55072, G481A).
T2 construct: His-tag; made in house; host or cells: E. coli B121[DE3]; (so in the source)
T2 sequence (P55072 whole entry G481A): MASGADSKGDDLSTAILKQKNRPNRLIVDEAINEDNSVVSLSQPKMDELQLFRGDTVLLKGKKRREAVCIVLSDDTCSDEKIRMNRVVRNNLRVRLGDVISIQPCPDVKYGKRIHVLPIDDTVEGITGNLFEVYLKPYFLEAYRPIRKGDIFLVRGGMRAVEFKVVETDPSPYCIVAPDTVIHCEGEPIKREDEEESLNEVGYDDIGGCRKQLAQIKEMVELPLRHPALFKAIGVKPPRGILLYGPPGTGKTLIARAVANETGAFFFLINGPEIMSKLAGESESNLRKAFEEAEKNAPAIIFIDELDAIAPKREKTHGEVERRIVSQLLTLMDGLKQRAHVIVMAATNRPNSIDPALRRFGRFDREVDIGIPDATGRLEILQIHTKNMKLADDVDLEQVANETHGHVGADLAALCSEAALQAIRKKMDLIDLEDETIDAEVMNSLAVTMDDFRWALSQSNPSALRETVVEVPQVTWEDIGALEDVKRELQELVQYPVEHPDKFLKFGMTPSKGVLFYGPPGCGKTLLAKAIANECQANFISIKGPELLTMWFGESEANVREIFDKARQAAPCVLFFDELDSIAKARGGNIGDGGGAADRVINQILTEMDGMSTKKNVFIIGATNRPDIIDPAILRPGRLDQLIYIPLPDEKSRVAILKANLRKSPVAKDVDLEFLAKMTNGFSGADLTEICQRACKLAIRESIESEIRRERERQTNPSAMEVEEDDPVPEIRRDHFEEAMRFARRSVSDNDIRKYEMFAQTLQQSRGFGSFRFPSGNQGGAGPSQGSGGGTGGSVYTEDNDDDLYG
The following applies: recombinant p97 with G481A mutation. As for the experimental part: as §1, §2

A further assay deals with T3, p97 A659T (Homo sapiens, UniProt P55072, A659T).
T3 construct: His-tag; made in house; host or cells: E. coli B121[DE3]; (so in the source)
T3 sequence (P55072 whole entry A659T): as the sequence (P55072 whole entry G481A) above, with A481G, A659T counted along it
The following applies: recombinant p97 with A659T mutation. As for the experimental part:
as §1, §2

The target of the next assay is T4, p97 T688A (Homo sapiens, UniProt P55072, T688A).
T4 construct: His-tag; made in house; host or cells: E. coli B121[DE3]; (so in the source)
T4 sequence (P55072 whole entry T688A): as the sequence (P55072 whole entry G481A) above, with A481G, T688A counted along it
The following applies: recombinant p97 with T688A mutation. As for the experimental part:
as §1, §2

Another assay addresses T5, p97 E470D (Homo sapiens, UniProt P55072, E470D).
T5 construct: His-tag; made in house; host or cells: E. coli B121[DE3]; (so in the source)
The following applies: recombinant p97 with E470D mutation. The procedure:
as §1, §2

The target of a further assay is T6, p97 Q473P (Homo sapiens, UniProt P55072, Q473P).
T6 construct: His-tag; made in house; host or cells: E. coli B121[DE3]; (so in the source)
T6 sequence (P55072 whole entry Q473P): as the sequence (P55072 whole entry G481A) above, with Q473P, A481G counted along it
The following applies: recombinant p97 with Q473P mutation. The procedure:
as §1, §2

T1 sequence (P55072 whole entry D649A): as the sequence (P55072 whole entry G481A) above, with A481G, D649A counted along it
T5 sequence (P55072 whole entry E470D): as the sequence (P55072 whole entry G481A) above, with E470D, A481G counted along it

`COc1nc2c(C(N)=O)cccc2n1-c1nc2c(c(NCc3ccccc3)n1)CCCC2` [Compound 5, 1-[4-(benzylamino)-5,6,7,8-tetrahydroquinazolin-2-yl]-2-methoxy-1H-1,3-benzodiazole-4-carboxamide]: the “Fold Change in IC50 compared to WT Protein” value on p97 D649A came to 67.0 fold; at p97 G481A, 4.1 fold; at p97 A659T, 110.0 fold; on p97 T688A, 363.0 fold; at p97 E470D, 15.4 fold; on p97 Q473P, 0.3 fold.

(Values after patent publication US20170159101A1, “DRUG-RESISTANT P97 ATPASE MUTATIONS” (Cleave Biosciences, Inc., priority 2014, published 2017).)
